# Reference: US20230212222A1 (ANYGEN CO., LTD., priority 2020, published 2023)
# Experiments:
# db/db mice [1] = test: glucose tolerance test in mouse model of diabetes mellitus disease; assay type: in vivo; conditions: db/db mice, 0.5, 1, 5 and 10 mg/kg subcutaneously, glucose 1.5 g/kg i.p. after 30 minutes
# Protocol: The glucose tolerance level in a mouse model of diabetes mellitus disease according to the HKFY derivative treatment was analyzed (FIG. 87).
# Specifically, male db/db mice (5 to 7-week-old, Central Lab. Animal Inc.), which is a mouse model of diabetes mellitus disease, were fasted for 16 hours, and then HKFY-34 was administered subcutaneously at a concentration of 0.5, 1, 5 and 10 mg/kg, respectively. After 30 minutes, glucose (1.5 g/kg) was intraperitoneally administered. After 0, 15, 30, 45, 60, 90, 120 and 180 minutes, blood was collected from the tail of the mice, and the blood glucose was measured with a blood glucose meter (acc-check, Roche, Germany) to analyze the glucose tolerance.
# rat islet = test: glucose-dependent insulin secretion in isolated rat islets (rat insulin ELISA); assay type: cell-based; conditions: 1 nM to 100 μM, 2.8 mM or 28 mM glucose
# Protocol: In addition, the glucose-dependent insulin secretion ability of the HKFY derivative for rat islet was confirmed (FIG. 76).
# Specifically, the pancreas was extracted from a 8-week-old SD rat (Damul Science), and islets were isolated. The isolated islets were treated with HKFY-34 at different concentrations (1 nM, 10 nM, 100 nM, 1 μM, 10 μM and 100 μM) in 2.8 mM or 28 mM glucose, and then the amount of the secreted insulin was measured using a rat insulin ELISA.
# GPR39 [2] = molecular target: T1, GPR39 (Homo sapiens, UniProt O43194); test: luciferase assay system (SRE luciferase reporter gene) for GPR39 in CV-1 cells
# T1 sequence (O43194 1-453): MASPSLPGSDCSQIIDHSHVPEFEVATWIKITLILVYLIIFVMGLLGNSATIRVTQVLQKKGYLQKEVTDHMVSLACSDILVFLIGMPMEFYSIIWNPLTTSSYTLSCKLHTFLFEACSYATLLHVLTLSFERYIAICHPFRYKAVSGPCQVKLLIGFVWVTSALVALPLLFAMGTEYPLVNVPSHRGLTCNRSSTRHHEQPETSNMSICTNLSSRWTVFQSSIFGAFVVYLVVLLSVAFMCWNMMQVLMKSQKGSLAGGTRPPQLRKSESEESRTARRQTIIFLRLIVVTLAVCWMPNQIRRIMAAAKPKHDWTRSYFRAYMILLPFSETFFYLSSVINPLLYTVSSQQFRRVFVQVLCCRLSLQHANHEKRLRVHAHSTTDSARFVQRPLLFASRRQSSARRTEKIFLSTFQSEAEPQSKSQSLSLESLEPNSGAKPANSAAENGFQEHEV
# Protocol: (§2) Specifically, the fibroblast cell line CV-1 (1×10^5 cells/ml, Korea Cell Line Bank) was cultured in a 96 well cell culture plate for 24 hours, and then treated with GPR39 inserted into adenovirus and SRE (serum response element) luciferase at 50 MOI (multiplicity of infection) and 25 MOI virus for 3 hours, respectively, and then cultured for 24 hours.
# db/db mice [3] = test: drop in blood glucose level in mouse model of diabetes mellitus disease; assay type: in vivo
# Protocol: The drop in blood glucose level in a mouse model of diabetes mellitus disease according to the HKFY derivative treatment was analyzed (FIG. 92).
# Specifically, HKFY-34 was subcutaneously administered at a concentration of 0.5, 1, 5 and 10 mg/kg, respectively, to male db/db mice (5 to 7-week-old), which is a mouse model of diabetes mellitus disease. After 0, 1, 2, 4, 6, 8, 12, 18 and 24 hours, blood was collected from the tail of the mice, and the blood glucose was measured with a blood glucose meter (acc-check, Roche, Germany) to confirm the anti-diabetic effect.
# GPR39 [4] = molecular target: T1, GPR39
# Protocol: as §2
# Irs2 and Ins2 = test: mRNA expression levels of Irs2 and Ins2 by RT-PCR; assay type: cell-based
# Protocol: The mRNA expression levels of Irs2 and Ins2, which are important factors for proliferation and differentiation of pancreatic beta cells, were analyzed through RT-PCR (FIG. 77).
# [5] = system: pERK and pPKA in WAT cells; test: pERK and pPKA expression by western blot in WAT; assay type: cell-based, mice; conditions: FIG. 86
# Protocol: In order to analyze the mechanism of lipolytic ability according to the HKFY derivative treatment in 3T3-L1 cells and WAT cells, the expression levels of pERK and pPKA were analyzed (FIGS. 85 and 86).
# Specifically, protein was purified from 3T3L-1 cells (Korea Cell Line Bank) and WAT (tissue culture using mice purchased from Central Lab. Animal Inc.) treated with the HKFY derivatives, and then each antibody for pERK, ERK, pPKA, and PKA expressed in mice was used, and the expression level of each protein due to the derivatives was measured through western blot.
# [6] = system: HSL, ATGL and Perilipin A in WAT cells; test: mRNA expression of lipolysis signaling factors by RT-PCR in WAT; assay type: cell-based, mice; conditions: versus isoproterenol positive control
# Protocol: (§1) In addition, the mRNA expression levels of HSL (hormone-sensitive lipase), ATGL (adipose triglyceride lipase) and Perilipin A, which are important factors for lipolysis signaling according to HKFY-34 treatment, were analyzed through RT-PCR (FIG. 79). […] In addition, it was confirmed that the mRNA expression of all factors was enhanced due to GPR39 through GPR39 siRNA (FIGS. 81 to 83).
# [7] = system: HSL, ATGL and Perilipin A in 3T3-L1 cells; test: mRNA expression of lipolysis signaling factors by RT-PCR in 3T3-L1 cells; assay type: cell-based; conditions: versus isoproterenol positive control
# Protocol: as §1
# 3T3-L1 cells = test: lipolytic ability (secreted glycerol) in 3T3-L1 cells; assay type: cell-based
# Protocol: In addition, lipolytic ability according to the HKFY-34 treatment by concentration (100 nM, 500 nM, […] (FIG. 84). When the signal of lipolysis is transmitted, lipid droplet glycerol and free fatty acid in adipocytes are secreted as final products and come out of the cell. At this time, the degree of lipolysis can be confirmed by quantifying the secreted glycerol. Isoproterenol, a positive control group, is an agonist of β-adrenergic receptors and mainly promotes lipolytic ability in adipocytes.
structure (smiles),measurement,setting,value
"CCCCCCCC(=O)NCCCC[C@H](NC(=O)[C@@H](N)Cc1cn(C(c2ccccc2)c2ccccc2)cn1)C(=O)N[C@H](Cc1ccc(C)cc1)C(=O)N[C@@H](Cc1ccc(O)cc1)C(=O)O [HKFY-34, ((R)-2-((S)-2-((S)-2-amino-3-(1-benzhydryl-1H-imidazol-4-yl)propanamido)-6-octanamidohexanamido)-3-(p-tolyl)propanoyl)-L-tyrosine]",glucose tolerance,db/db mice [1],significant glucose tolerance in a concentration dependent manner
same,insulin secretion ability,rat islet,concentration dependent (dose-dependent) manner
same,EC50,"GPR39 [2]; EC50, CV-1 cells, GPR39 and SRE luciferase adenovirus, treated 6 hours, luminometer",7 ± 1 nM
same,binding capacity and activity to the GPR39 receptor (in words),"GPR39 [2]; FIG. 73 and Table 4, luciferase and calcium influx assay",excellent
same,EC50,"GPR39 [2]; Reporter gene assay EC50, Table 4, luciferase assay system",6.7 ± 0.7 nM
same,ECmax value (in words),GPR39 [2]; comment on Table 3,high ECmax value
same,activity level for GPR39 (in words),GPR39 [2]; comment on Table 3,higher activity level than other HJKFY derivatives
same,activity level for GPR39 (in words),"GPR39 [2]; comment on Table 3, listed as HIKFY-34",most excellent activity
same,effect of drop in blood glucose level,"db/db mice [3]; db/db mice, 0.5, 1, 5 and 10 mg/kg subcutaneously, 0 to 24 hours",exhibited in a concentration-dependent manner
same,effect of drop in blood glucose,"db/db mice [3]; db/db mice, 5 and 10 mg/kg",significantly increased
same,ECmax (-fold induction over basal),GPR39 [4],22.39 ± 4.59 -fold induction over basal
same,Reporter gene assay ECmax (-fold induction over basal),GPR39 [4],22.39 ± 4.59 -fold induction over basal
same,mRNA expression of Ins2,Irs2 and Ins2; GPR39 siRNA treated group,hardly achieved
same,mRNA expression of Irs2,Irs2 and Ins2; GPR39 siRNA treated group,hardly achieved
same,mRNA expression level of Ins2,"Irs2 and Ins2; RT-PCR, FIG. 77",increased
same,mRNA expression level of Irs2,"Irs2 and Ins2; RT-PCR, FIG. 77",increased
same,expression of pERK compared to ERK,[5],increased
same,expression of pPKA compared to PKA,[5],increased
same,mRNA expression of ATGL,[6],increased to a degree similar to that of isoproterenol
same,mRNA expression of HSL,[6],increased to a degree similar to that of isoproterenol
same,mRNA expression of Perilipin A,[6],increased to a degree similar to that of isoproterenol
same,mRNA expression of ATGL,[7],increased to a degree similar to that of isoproterenol
same,mRNA expression of HSL,[7],increased to a degree similar to that of isoproterenol
same,mRNA expression of Perilipin A,[7],increased to a degree similar to that of isoproterenol
same,lipolytic ability,3T3-L1 cells; HKFY-34 concentration 10 μM or higher,significantly increased
same,lipolytic ability,"3T3-L1 cells; by concentration, FIG. 84",increased in a concentration dependent manner
